The values that follow are results of earlier work, collected in patent publication US8716482B2, “Substituted aminopiperidines as dipeptidyl peptidase-IV inhibitors for the treatment of diabetes” (Merck Sharp & Dohme Corp., priority 2009, dated 2014).

For one series, the system named is hematopoiesis. The conditions noted are these: mouse, cyclophosphamide-induced neutropenia.
The target in another series is DPP-4 (Homo sapiens (Human), UniProt P27487).
Chain of DPP-4 (P27487 39-766, species assumed): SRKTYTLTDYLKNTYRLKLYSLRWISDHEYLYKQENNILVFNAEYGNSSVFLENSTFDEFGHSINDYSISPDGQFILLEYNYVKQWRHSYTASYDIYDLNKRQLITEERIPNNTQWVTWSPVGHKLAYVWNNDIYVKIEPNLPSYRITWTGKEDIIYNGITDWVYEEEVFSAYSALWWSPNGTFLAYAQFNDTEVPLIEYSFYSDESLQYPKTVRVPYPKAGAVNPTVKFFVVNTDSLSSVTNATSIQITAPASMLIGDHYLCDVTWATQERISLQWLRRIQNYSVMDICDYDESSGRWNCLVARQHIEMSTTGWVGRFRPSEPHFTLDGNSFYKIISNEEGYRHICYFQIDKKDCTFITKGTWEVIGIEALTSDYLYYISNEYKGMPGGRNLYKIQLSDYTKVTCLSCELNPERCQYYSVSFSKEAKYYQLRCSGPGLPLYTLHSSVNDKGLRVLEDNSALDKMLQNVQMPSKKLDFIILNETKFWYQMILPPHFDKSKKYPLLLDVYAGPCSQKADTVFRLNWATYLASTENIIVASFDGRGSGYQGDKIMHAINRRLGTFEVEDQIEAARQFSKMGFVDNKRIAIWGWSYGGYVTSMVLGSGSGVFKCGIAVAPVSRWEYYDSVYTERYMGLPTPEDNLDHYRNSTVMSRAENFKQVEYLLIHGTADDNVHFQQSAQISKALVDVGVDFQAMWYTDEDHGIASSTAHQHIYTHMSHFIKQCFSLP

For `CC(C)[C@H](N)C(=O)N1CCC[C@H]1B(O)O` [Val-Boro-Pro], in the series with hematopoiesis, the hematopoiesis result is “stimulated hematopoiesis”.
For the molecule diprotin A, at DPP-4, the “degradation of GRF in plasma to GRF[3-44]” value was “prevented”.
